Reference: publication PMC3556473, “Absorption, metabolism and excretion of [^14C]pomalidomide in humans following oral administration” (Cancer Chemotherapy and Pharmacology, 2012)
pEC50, pIC50: −log10 of the molar value. Values joined by “and” are separate entries in the source; they are usually repeats but may differ in a detail not shown here. Identical values can stand only once. Like-named read-outs stand apart in the source and are kept apart here.

What was measured:
[1] = Metabolite profiling of urine and feces (% of dose excreted); assay type: in vivo, human; set-up: key to % of dose excreted, Feces / % of dose excreted, Urine: ND: not detected; D: detected by MS, but at concentrations too low to accurately quantify by radiochromatography; conditions: radiochromatography; for % of dose excreted, Urine: pooled urine 0–72 h
Experimental: For each subject, urine samples were pooled using an equal percentage by volume of the 0–6, 6–12, 12–24, 24–48 and 48–72 h samples. Pools of the 0–6, 6–12, 12–24, 24–48 and 48-72 h collections were also prepared across subjects and analyzed for metabolite profiling. Samples were mixed and centrifuged prior to the supernatants being transferred to fresh tubes for metabolite profiling analysis.
For each subject, fecal homogenates for metabolite profiling were pooled using an equal percentage by weight of the 0–24, 24–48, 48–72 and 72–96 h samples. Pools of the 0–24, 24-48, 48–72 and 72–96 h collections were also prepared across subjects and analyzed for metabolite profiling. An aliquot of each pool was extracted with acetonitrile; samples were mixed and centrifuged. The supernatant was removed and the pellets re-suspended with 0.1 % formic acid and extracted with acetonitrile. The combined supernatants were evaporated to dryness under a stream of nitrogen and the residue re-suspended in methanol:0.1 % formic acid in water (1:1). Samples were assayed for extraction recovery prior to metabolite profiling. A control fecal homogenate spiked with [^14C]pomalidomide was extracted in a similar manner to determine the extraction efficiency and stability of [^14C]pomalidomide.
(§1) HPLC analysis for metabolite profiling (HPLC Method 1) was performed using a Waters 2695 Alliance Separation Module (Waters Corp., Milford, MA) with the autosampler set to 4 °C. [^14C]Pomalidomide and metabolites were separated using an ACE C18 column (150 × 4.6 mm, 3 μm; Advanced Chromatography Technologies, Aberdeen, Scotland) equipped with an ACE C18 guard column (10 × 3 mm, 3 μm). The mobile phases used were 25 mM ammonium acetate in water: pH 5.5 with formic acid (mobile phase A) and methanol (mobile phase B). The column temperature was 30 °C, and the flow rate was 0.7 mL/min. The linear gradient was delivered as follows: 0–2 min 100 % A; 2–38 min to 64 % A; 38–44 min to 0 % A; 44–48 min hold at 0 % A; return to initial conditions over 2 min.
(§2) Radioactivity profiles for plasma and excreta were determined by collecting the column eluate into 96-well Deepwell LumaPlates™ at a rate of 0.25 min/fraction. The plates were dried and the radioactivity in each well determined using a PerkinElmer TopCount® NXT™ Microplate Scintillation Counter. HPLC radiochromatograms were reconstructed using LC-ARC data handling software.

[2] = Plasma pharmacokinetics of pomalidomide and circulating metabolites by radiochromatography (metabolite profiling); assay type: in vivo, human; set-up: key to Plasma (% AUC relative to TRA): ND: not detected; D: detected by MS, but at concentrations too low to accurately quantify by radiochromatography; AUC0–24 / AUC0−∞: concentration or dose not given beside the values; conditions: for Plasma (% AUC relative to TRA): AUC0–24 (unchanged drug or metabolite)/AUC0–24 (TRA) * 100 %; for AUC/AUCTRA: plasma exposure relative to total radioactivity; for AUC0–24 / AUC0−∞ / C max / t ½ / T max: plasma, radiochromatography; for AUC0–24 / AUC0−∞ / C max / t ½: geometric mean (%CV); for T max: median and range
Experimental: Individual plasma samples collected from all subjects at 1, 2.5, 4, 6, 10, 12 and 24 h post-dose were analyzed for metabolite profiling. Samples were extracted with acetonitrile, the supernatant was removed, and the pellet was washed with 0.1 % formic acid in water and extracted again with acetonitrile. The combined supernatants were adjusted to 15 or 25 mL by adding acetonitrile then evaporated to dryness under a stream of nitrogen. The residues were re-suspended in 0.1 % formic acid in water, assayed for extraction recovery and analyzed for metabolite profiling. A control plasma sample spiked with [^14C]pomalidomide was extracted in a similar manner to determine the extraction efficiency and stability of [^14C]pomalidomide.
as §1, §2
For pomalidomide and metabolite concentrations in plasma based on metabolite profiling data, pharmacokinetic data were generated by non-compartmental analysis of plasma versus time profiles using WinNonlin (version 4.1, Enterprise Edition).

PBMC TNF-α production = assay: Inhibition of TNF-α production by LPS-stimulated human PBMC (1-day culture); assay type: cell-based; conditions: 24 h
Experimental: (§3) Metabolites and hydrolysis products of pomalidomide were tested for pharmacological activity in the following three assay systems: (1) inhibition of MM cell proliferation, (2) enhancement of primary human T cell IL-2 production and (3) inhibition of TNF-α production by lipopolysaccharide (LPS)-stimulated human peripheral blood mononuclear cells (PBMC). For all three assay types, compounds were dissolved in 100 % dimethyl sulfoxide (DMSO) and diluted into complete cell culture medium, consisting of Roswell Park Memorial Institute (RPMI)-1640 plus penicillin, streptomycin and L-glutamine (Mediatech, Manassas, VA). The MM cell proliferation cell culture medium contained 10 % fetal bovine serum, while the primary human cell cultures contained 10 % human AB serum (Invitrogen, Brown Deer, WI). The final DMSO concentration in the cell culture media was 0.25 %.
(§4) The human MM cell line OPM-2 was obtained from DSMZ (Braunschweig, Germany), and human MM cell lines U266 B1 and NCI-H929 were obtained from ATCC (Manassas, VA). Inhibition of MM cell proliferation was assessed by the [^3H]-thymidine incorporation assay in a 3-day culture in the presence of compounds in complete medium, as previously described. Primary human T cells were isolated from PBMC by negative selection using the RosetteSep T Cell Enrichment Cocktail (STEMCELL Technologies, Tukwila, WA) according to the manufacturer’s procedures. Costimulation of T cell IL-2 production was measured in a 2-day culture of primary human T cells isolated from healthy donors stimulated with anti-CD3 antibody in the presence of compounds, as previously described. Inhibition of TNF-α production by LPS-stimulated human PBMC was measured in a 1-day culture in the presence of compound, as previously described.

U266 MM cell = assay: Inhibition of MM cell proliferation ([3H]-thymidine incorporation, 3-day culture); assay type: cell-based; conditions: Homo sapiens, U-266
Experimental: as §3, §4

H929 MM cell = assay: as above; assay type: cell-based; conditions: Homo sapiens, NCI-H929
Experimental: as §3, §4

OPM-2 MM cell = assay: as above; assay type: cell-based; conditions: Homo sapiens
Experimental: as §3, §4

T cell IL-2 production = assay: Enhancement of primary human T cell IL-2 production (anti-CD3 stimulated, 2-day culture); assay type: cell-based; conditions: 48 h, anti-CD3 stimulated primary human T cells
Experimental: as §3, §4

[3] = thalidomide, cited from earlier work

% of dose excreted, Urine [1] | Plasma (% AUC relative to TRA) [2] | AUC/AUCTRA [2] | AUC0–24 [2] | AUC0−∞ [2] | C max [2] | t ½ [2] | T max [2] | % of dose excreted, Feces ([1]; pooled feces 0–96 h) | pIC50 (U266 MM cell) | pIC50 (H929 MM cell) | pEC50 (T cell IL-2 production) | Compound | pIC50 (PBMC TNF-α production) | pIC50 (OPM-2 MM cell) | Percent dose excreted in human urine, Hydrolysis products [3] | Percent dose excreted in human urine, Metabolites (oxidative and conjugative) [3] | Percent dose excreted in human urine, Parent [3] | Percent dose excreted in human urine, Total [3] | Percent dose excreted in human urine, Total ([3]; listed as thalidomide)
12% and 12.4% | 2.0% | 1.99% | 3.86 (54.0) ngEq*h/mL | 5.99 (48.9) ngEq*h/mL | 0.362 (31.7) ngEq/mL | 9.97 (43.6) h | 3.25 (1.0–6.0) h | – | – | – | – | Nc1c(O[C@@H]2O[C@H](C(=O)O)[C@@H](O)[C@H](O)[C@H]2O)ccc2c1C(=O)N(C1CCC(=O)NC1=O)C2=O (stereo partly drawn) [Metabolite M13] | – | – | – | – | – | – | –
0.1% | D | – | – | – | – | – | – | D | < 6.00 | < 6.00 | < 5.00 | CC(=O)Nc1cccc2c1C(=O)N(C1CCC(=O)NC1=O)C2=O (stereo not drawn) [Metabolite M18, N-acetyl pomalidomide] | < 5.00 | < 6.00 | – | – | – | – | –
D | D | – | – | – | – | – | – | – | < 6.00 | < 6.00 | 5.82 | Nc1cccc2c1C(=O)N(C1CC(O)C(=O)NC1=O)C2=O (stereo not drawn) [Metabolite M19] | 5.64 | < 6.00 | – | – | – | – | –

The next lines start with the compound.

Compound | % of dose excreted, Urine [1] | Plasma (% AUC relative to TRA) [2] | AUC/AUCTRA [2] | AUC0–24 [2] | AUC0−∞ [2] | C max [2] | t ½ [2] | T max [2] | % of dose excreted, Feces ([1]; pooled feces 0–96 h) | pIC50 (U266 MM cell) | pIC50 (H929 MM cell) | pEC50 (T cell IL-2 production) | pIC50 (PBMC TNF-α production) | pIC50 (OPM-2 MM cell) | Percent dose excreted in human urine, Hydrolysis products [3] | Percent dose excreted in human urine, Metabolites (oxidative and conjugative) [3] | Percent dose excreted in human urine, Parent [3] | Percent dose excreted in human urine, Total [3] | Percent dose excreted in human urine, Total ([3]; listed as thalidomide)
Nc1c(O[C@@H]2O[C@H](C(=O)O)[C@@H](O)[C@H](O)[C@H]2O)ccc2c1C(=O)N(C1CCC(=O)NC1=O)C2=O (stereo partly drawn) [Metabolite M12] | 17% and 17.1% | 4.6% | 4.59% | 8.90 (20.9) ngEq*h/mL | 10.1 (30.2) ngEq*h/mL | 0.664 (23.5) ngEq/mL | 9.06 (18.7) h | 2.5 (1.0–6.0) h | – | – | – | – | – | – | – | – | – | – | –
O=C1CCC(N2C(=O)c3ccccc3C2=O)C(=O)N1 (stereo not drawn) [Thalidomide, thalidomide] | – | – | – | – | – | – | – | – | – | – | – | – | – | – | 87.2% | Trace | 1.8% | 91.9% | > 90%
